In patent EP4140481A1, “PROTEIN-OLIGOMER BINDING AGENTS AND THERAPEUTIC USES THEREOF” (Galyan Bio, Inc., priority 2021, dated 2023):

Key:
STHdh 111/111 = assay: Morphology of striatal cells expressing mutated huntingtin; assay type: cell-based, mouse; conditions: treated versus not treated STHdh 111/111
[1] = molecular target: T1, Wild type (wt) α-Synuclein (Homo sapiens, UniProt P37840); assay: Dynamic Light Scattering (DLS), induced aggregation; assay type: biochemical
T1 construct: purchased rPeptide, Watkinsville, Georgia S-1001-2
Description: In order to induce the formation of smaller oligomers of the α-Synuclein protein it was hypothised that using DMSO as a solvent induces oligomer formation Kostka et al., THE JOURNAL OF BIOLOGICAL […] VOL. 283, NO. 16, pp. 10992-11003, April 18, 2008). In order to assess the ability of certain compounds to induce formation of aggregates from protein-oligomers, the following experiments were conducted.
Proteins were ultracentrifuged with 50,000 rpm (rounds per minute) for one hour at 2 °C. The supernatant was used for DLS measurements. DLS measurements were conducted with Malvern Zetasizer Nano (Malvern Panalytical Ltd, United Kingdom).
Wild type (wt) α-Synuclein (catalog S-1001-2, rPeptide, Watkinsville, Georgia) was solved in 20 mM phosphate, pH 7.4 buffer.
As mentioned, it was described that 1% DMSO was used to induce α-Synuclein to form small oligomers (Kostka et al., THE JOURNAL OF BIOLOGICAL […] VOL. 283, NO. 16, pp. 10992-11003, April 18, 2008). 1% DMSO (Sigma) was used to trigger small oligomer formation of wt α-Synuclein. 1% DMSO was added to wt α-Synuclein to measure the effect of DMSO alone on wt α-Synuclein. With DLS there is no volume difference detectable between wt α-Synuclein with and without 1% DMSO (Figure 44). […] 1% DMSO induces the formation of small oligomers, which interact with Compound 4 and form larger aggregates of the oligomers.

Microsomal stability = assay type: in vitro ADME; conditions: humans versus mice
[2] = system: CREB-binding protein (CBP) colocalization with mHTT; assay: Co-localization of CREB-binding protein (CBP) with mHTT; assay type: in vivo, R6/2 mice; conditions: treated animals of the R6/2 study versus untreated TG mice; p = 0.02
From the text: Staining - Goat anti-Rabbit IgG (H+L) Alexa Fluor 647 (1:500, ThermoFisher Invitrogen) was used as a secondary antibody for binding to CBP antibody. DAPI (Sigma-Aldrich) was used to identify the nuclei. Goat anti-Mouse IgG (H+L), Alexa Fluor 488 (1:500, A-11034, ThermoFisher Invitrogen) was used as a secondary antibody for binding to EM48 antibody. Mouse anti-human-mHTT (EM48, 1:500, Sigma-Aldrich), was used to stain huntingtin. Rabbit anti-CBP (1:100, Sigma-Aldrich) was used a primary antibody to stain CBP.
The blocking buffer was freshly prepared and consisted of PBS (Sigma-Aldrich) with 5% normal goat serum (NGS), 0.2% BSA, 0.2% lysine and 0.2% glycine. […] On day six, samples were washed and then incubated with DAPI containing mounting medium Fluoroshield (Sigma-Aldrich), in order to counterstain the nuclei and preserve the fluorescence. […]
CBP colocalization with mHTT and quantitative assessment of the images were measured (Lee, J. et al., Acta Neuropathol. 2017 Nov;[…]:729-748; Steffan, J.S. et al., Nature. 2001 Oct 18;413(6857):739-743; Nucifora, F.C. et al., Science. 2001 Mar 23;291(5512):2423-2428). In brief, regions of interest (colocalized areas) in multi-channel images from two or three of the overlapping fluorescence dyes were selected using the Plugin CoLoc2 of FIJI. The colocalization score of identified areas was calculated. […]

R6/2 mice = assay: Grip strength in R6/2 mice of Huntington's disease; assay type: in vivo; conditions: 33 mg/kg i.p. QD; versus vehicle treated R6/2 mice
Description: Methods ― Total of 20 female and male R6/2 mice and 10 female and male wild-type littermate control mice (WT) were used in the study. The mice were genotyped and the R6/2 mice were divided into different treatment groups based on their litter and baseline body weight. The treatment with Vehicle or Compound 22 (33 mg/kg; 5 ml/kg, i.p. QD) was started at 4 weeks of age after the baseline behavioral tests (Figure 6). Body weights were measured at 3 weeks of age and twice a week until the end of the study.
The experimental groups were: • Group 1) 10 wild-type mice (mixed gender) treated with Vehicle (5 ml/kg, i.p., QD) starting at 4 weeks of age • Group 2) 10 R6/2 mice (mixed gender) treated with Vehicle (5 ml/kg, i.p., QD) starting at 4 weeks of age • Group 3) 10 R6/2 mice (mixed gender) treated with Compound 22 (33 mg/kg; 5 ml/kg, i.p. QD) starting at 4 weeks of age
Compound Delivery and Dosing - Treatment with Compound 22 (33 mg/kg; 5 ml/kg, i.p. QD) or Vehicle was started at age week 4 and continued until the 12 weeks of age. […]
Mice were taken to the experimental room and, one at a time, were placed on the grip strength apparatus (San Diego Instruments, San Diego, USA) in such a way that the animal grabbed a small mesh grip with its forepaws. […] Five scores were recorded per animal in consecutive sequence, and the average of three best scores for each animal was used for the results. […]

[3] = by volume, 70 µM equimolar Compound 4 solved in methanol
[4] = by volume, equimolar Compound 4 solved in DMSO (1% DMSO)

SMILES | cell morphology (STHdh 111/111) | aggregation of wt α-Synuclein ([1]; Compound 4 solved in DMSO) | % Volume, Peak 2 [1, 3] | % Volume, Peak 3 [1, 3] | Size, Peak 1 [1, 3] | Size, Peak 2 [1, 3] | Size, Peak 3 [1, 3] | % Volume, Peak 1 [1, 4] | % Volume, Peak 2 [1, 4] | Size, Peak 1 [1, 4] | Size, Peak 2 [1, 4] | microsomal stability in humans, times higher in comparison to mice (Microsomal stability) | reduction of CBP colocalization with mHTT [2] | grip strength (R6/2 mice)
CCc1c(C)[nH]c2ccc(C(=O)NCCN(CC)CC)cc12 [Compound 4, N-(2-(diethylamino)ethyl)-3-ethyl-2-methyl-1H-indole-5-carboxamide] | improved cell viability, dendrite outgrowth and increased cell size | forms aggregates | 0.3% | 0.3% | 6.139 nm | 80.87 nm | 338.7 nm | 96.2% | 3.8% | 144.0 nm | 4794 nm | – | – | –
Cc1[nH]c2ccc(C(=O)NCCN(C(C)C)C(C)C)cc2c1C [Compound 22] | – | – | – | – | – | – | – | – | – | – | – | 20 times | 4 fold | no significant differences
